EC50 data for 26 molecules are collected here from patent publication US10011615B2, “Heterobicyclo-substituted [1,2,4]triazolo[1,5-c]quinazolin-5-amine compounds with A2A anatagonist properties” (Merck Sharp & Dohme Corp., priority 2012, dated 2018).

pEC50: −log10 of the molar value.

T1 sequence (P29274 whole entry): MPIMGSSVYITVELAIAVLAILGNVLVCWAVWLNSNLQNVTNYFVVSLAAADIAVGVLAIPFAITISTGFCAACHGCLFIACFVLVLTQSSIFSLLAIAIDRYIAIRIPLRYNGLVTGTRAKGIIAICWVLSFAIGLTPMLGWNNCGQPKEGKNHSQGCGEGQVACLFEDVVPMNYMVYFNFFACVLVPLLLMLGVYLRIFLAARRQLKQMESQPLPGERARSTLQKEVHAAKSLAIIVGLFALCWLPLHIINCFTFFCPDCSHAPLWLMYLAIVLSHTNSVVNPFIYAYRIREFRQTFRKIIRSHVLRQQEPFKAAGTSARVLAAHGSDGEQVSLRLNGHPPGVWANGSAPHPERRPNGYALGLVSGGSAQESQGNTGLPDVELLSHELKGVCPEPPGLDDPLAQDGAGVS

The assay concerns the target T1, human A2a receptor (Homo sapiens, UniProt P29274).
T1 construct: purchased Perkin-Elmer RBHA2AM400UA; host or cells: HEK293 cell membranes
As to the kind of experiment: A2a receptor competition binding assay using Scintillation Proximity technology. Particulars: membranes from HEK293 cells expressing human A2a receptor; 0.5 nM tritiated radioligand; SPA beads; 1 h room temperature. The method, then: Binding affinities of compounds of the invention for the human A2a receptor were determined in a competition binding assay using Scintillation Proximity technology. Thus, 0.3 μg of membranes from HEK293 cells expressing the human A2a receptor were incubated with a compound of the invention at concentrations ranging from 3000 nM to 0.15 nM in a reaction mixture containing also 0.5 nM of a tritiated form of 5-amino-7-[2-phenethyl]-2-(furan-2-yl)-7H-pyrazolo[4,3-e][1,2,4]triazolo[1,5-c]pyrimidine (the tritiated compound) and 100 μg of wheat germ agglutin-coated yttrium silicate SPA beads for one hour at room temperature with agitation. The beads were then allowed to settle to the bottom of the wells for 1 hr, after which the membrane-associated radioactivity was determined by scintillation counting in a TopCount microplate reader. Ki values were determined using the Cheng-Prusoff equation.
Summary of Materials and Methods Used in A2a Activity Determination:
HEK293 cells expressing the human, rat, dog or monkey adenosine 2a receptor (Purchased from Perkin-Elmer # RBHA2AM400UA).
The Tritiated compound was prepared in-house by MRL Radiochemistry according to published methods.
Wheat germ agglutinin-coated yttrium silicate SPA beads (GE Healthcare#RPNQ0023). Dilute to 25 mg/ml in assay buffer.
Assay Buffer was prepared in house: Dulbecco's calcium and magnesium free phosphate buffered saline+10 mM MgCl2
Adenosine deaminase from calf intestine, 10 mg/2 ml (Roche) 10 102 105 001).
A2a antagonist standard (9-chloro-1-(2-furanyl)-[1,2,4]triazolo1,5-c]quinazolin-5-amine from Tocris Bioscience)
Make eight 1:3 serial dilutions in 100% DMSO from a 3 mM compound stock
Transfer 50 nl of compound into a 384-well OptiPlate (Perkin Elmer).
Typically, final concentrations of compound used in the assay ranged from 3000 nM to 0.152 nM.
Dilute a solution of the Tritiated compound to 1.25 nM in assay buffer. This is a 2.5× solution. The final concentration in the assay is 0.5 nM. Calculate the concentration by counting two 5 μl aliquots.
Use 0.25 ug of membrane/well. Dilute membranes to 9.7 μg/ml in assay buffer. Treat with 20 ug/ml adenosine deaminase (ADA) for 15 minutes at room temperature to degrade endogenous adenosine.
Use 100 μg/well wheat germ agglutinin-coated yttrium silicate SPA beads.
Mix ADA-treated membranes and SPA beads together for 30 min prior to assay.
To the Perkin-Elmer Optiplate-384 containing the compound titration add 20 μl of 2.5× solution of the Tritiated compound and 30 μl of the membrane-bead mixture. Incubate for one hour at room temperature with agitation.
Include total binding (assay buffer+1% DMSO) and non-specific binding (CGS15943, 1 μM) wells.
Allow the beads to settle for one hour.
A curve fitting program (i.e., Prism, Activity Base, Chemcart) is used to determine the EC50. The Ki value is calculated using the Cheng-Prusoff equation: K i=EC50/(1+(radioligand concentration/Kd)).
Take `COc1cccc2c1nc(N)n1nc(CCN3CCc4nc(C)oc4C3)nc21` [Ex-28, 7-methoxy-2-(2-(2-methyl-6,7-dihydrooxazolo[5,4-c]pyridin-5(4H)-yl)ethyl)-[1,2,4]triazolo[1,5-c]quinazolin-5-amine]: the negative logarithm of the EC50 (pEC50) was 8.66.
As to `COc1cccc2c1nc(N)n1nc(CCN3CCc4nc(C)sc4C3)nc21` [Ex-29, 7-methoxy-2-(2-(2-methyl-6,7-dihydrothiazolo[5,4-c]pyridin-5(4H)-yl)ethyl)-[1,2,4]triazolo[1,5-c]quinazolin-5-amine], the pEC50 is 8.77. The pEC50 values of the last two molecules are within 0.2 log units of each other.
On to `COc1cccc2c1nc(N)n1nc(CCN3CCc4nc(C5CC5)sc4C3)nc21` [Ex-30, 2-(2-(2-cyclopropyl-6,7-dihydrothiazolo[5,4-c]pyridin-5(4H)-yl)ethyl)-7-methoxy-[1,2,4]triazolo[1,5-c]quinazolin-5-amine], for which the pEC50 was 8.96.
As to `COc1cccc2c1nc(N)n1nc(CCN3CCc4nc(C5CC5)oc4C3)nc21` [Ex-31, 2-(2-(2-cyclopropyl-6,7-dihydrooxazolo[5,4-c]pyridin-5(4H)-yl)ethyl)-7-methoxy[1,2,4]triazolo[1,5-c]quinazolin-5-amine], the pEC50 was 8.89.
Turning to `COc1cccc2c1nc(N)n1nc(CCN3CCc4c(c(C(F)(F)F)nn4C)C3)nc21` [Ex-32, 7-methoxy-2-(2-(1-methyl-3-(trifluoromethyl)-677-dihydro-1H-pyrazolo[4,3-c]pyridin-5(4H)-yl)ethyl)-[1,2,4]triazolo[1,5-c]quinazolin-5-amine], the pEC50 was 8.85.
For the molecule `COc1cccc2c1nc(N)n1nc(CCN3CCn4nccc43)nc21` [Ex-33, 2-(2-(2,3-dihydro-1H-imidazo[1,2-b]pyrazol-1-yl)ethyl)-7-methoxy-[1,2,4]triazolo[1,5-c]quinazolin-5-amine], the negative logarithm of the EC50 (pEC50) was 8.38. This pEC50 lies 0.47 log units lower than the previous one.
With `COc1cccc2c1nc(N)n1nc(CCN3Cc4nc(-c5ccccc5)[nH]c4C3)nc21` [Ex-34] the figure was 8.77; with `COc1cccc2c1nc(N)n1nc(CCN3CCc4oncc4C3)nc21` [Ex-35, 2-(2-(6,7-dihydroisoxazolo[4,5-c]pyridin-5(4H)-yl)ethyl)-7-methoxy-[1,2,4]triazolo[1,5-c]quinazolin-5-amine], 8.64.
As for `COc1cccc2c1nc(N)n1nc(CCN3CCc4[nH]ncc4C3)nc21` [Ex-36, 2-(2-(6,7-dihydro-1H-pyrazolo[4,3-c]pyridin-5(4H)-yl)ethyl)-7-methoxy-[1,2,4]triazolo[1,5-c]quinazolin-5-amine], the negative-log EC50 (pEC50) was 8.17. This pEC50 is 0.47 log units lower than that of the molecule before.
Turning to `COc1cccc2c1nc(N)n1nc(CCN3CCc4[nH]nc(C)c4C3)nc21` [Ex-37, 7-methoxy-2-(2-(3-methyl-6,7-dihydro-1H-pyrazolo[4,3-c]pyridin-5(4H)-yl)ethyl)-[1,2,4]triazolo[1,5-c]quinazolin-5-amine], the pEC50 is 8.19. This pEC50 and that of the molecule before are within 0.2 log units of each other.
For `COc1cccc2c1nc(N)n1nc(CCN3CCc4[nH]nc(C(F)(F)F)c4C3)nc21` [Ex-38, 7-methoxy-2-(2-(3-(trifluoromethyl)-6,7-dihydro-1H-pyrazolo[4,3-c]pyridin-5(4H)-yl)ethyl)-[1,2,4]triazolo[1,5-c]quinazolin-5-amine], the pEC50 is 8.70.
On to `COc1cccc2c1nc(N)n1nc(CCN3CCc4sccc4C3)nc21` [Ex-39], for which the pEC50 was 8.74.
With `COc1cccc2c1nc(N)n1nc(CCN3CCc4c(C5CC5)n[nH]c4C3)nc21` [Ex-40, 2-(2-(3-cyclopropyl-4,5-dihydro-1H-pyrazolo[3,4-c]pyridin-6(7H)-yl)ethyl)-7-methoxy-[1,2,4]triazolo[1,5-c]quinazolin-5-amine] the figure was 8.96; with `COc1cccc2c1nc(N)n1nc(CCN3CCn4nc(C)cc4C3)nc21` [Ex-41, 7-methoxy-2-(2-(2-methyl-6,7-dihydropyrazolo[1,5-a]pyrazin-5(4H)-yl)ethyl)-[1,2,4]triazolo[1,5-c]quinazolin-5-amine], 8.59; with `COc1cccc2c1nc(N)n1nc(CCN3CCc4c(C(F)(F)F)n[nH]c4C3)nc21` [Ex-42, 7-methoxy-2-(2-(3-(trifluoromethyl)-4,5-dihydro-1H-pyrazolo[3,4-c]pyridin-6(7H)-yl)ethyl)-[1,2,4]triazolo[1,5-c]quinazolin-5-amine], 8.85.
With `COc1cccc2c1nc(N)n1nc(CCN3CCCc4c3c(C(F)(F)F)nn4C)nc21` [Ex-43, 7-methoxy-2-(2-(1-methyl-3-(trifluoromethyl)-6,7-dihydro-1H-pyrazolo[4,3-b]pyridin-4(5H)-yl)ethyl)-[1,2,4]triazolo[1,5-c]quinazolin-5-amine] the figure was 8.08; with `COc1cccc2c1nc(N)n1nc(CCN3CCc4cc(F)ccc4C3)nc21` [Ex-44, 2-(2-(6-fluoro-3,4-dihydroisoquinolin-2(1H)-yl)ethyl)-7-methoxy-[1,2,4]triazolo[1,5-c]quinazolin-5-amine], 8.38.
`COc1cccc2c1nc(N)n1nc(CCN3CCc4cccnc4C3)nc21` [Ex-45, 2-(2-(5,6-dihydro-1,7-naphthyridin-7(8H)-yl)ethyl)-7-methoxy-[1,2,4]triazolo[1,5-c]quinazolin-5-amine] showed a pEC50 of 8.37. This pEC50 and that of the molecule before are within 0.2 log units of each other.
With `COc1cccc2c1nc(N)n1nc(CCN3Cc4ccc(C(F)(F)F)cc4C3)nc21` [Ex-46, 7-methoxy-2-(2-(5-(trifluoromethyl)isoindolin-2-yl)ethyl)-[1,2,4]triazolo[1,5-c]quinazolin-5-amine] the figure was 7.74; with `COc1cccc2c1nc(N)n1nc(CCN3Cc4ccc(F)cc4C3)nc21` [Ex-48, 2-(2-(5-fluoroisoindolin-2-yl)ethyl)-7-methoxy-[1,2,4]triazolo[1,5-c]quinazolin-5-amine], 8.34; with `COc1cccc2c1nc(N)n1nc(CCN3Cc4cccnc4C3)nc21` [Ex-49, 2-(2-(5H-pyrrolo[3,4-b]pyridin-6(7H)-yl)ethyl)-7-methoxy-[1,2,4]triazolo[1,5-c]quinazolin-5-amine], 8.27.
Consider `COc1cccc2c1nc(N)n1nc(CCN3Cc4[nH]nc(-c5ccccc5)c4C3)nc21` [Ex-50, 7-methoxy-2-(2-(3-phenylpyrrolo[3,4-c]pyrazol-5(1H,4H,6H)-yl)ethyl)-[1,2,4]triazolo[1,5-c]quinazolin-5-amine], for which the pEC50 is 8.82.
Take `COc1cccc2c1nc(N)n1nc(CCN3Cc4cn[nH]c4C3)nc21` [Ex-51, 7-methoxy-2-(2-(pyrrolo[3,4-c]pyrazol-5(1H,4H,6H)--yl)ethyl)-[1,2,4]triazolo[1,5-c]quinazolin-5-amine]: the negative logarithm of the EC50 (pEC50) was 8.54.
With `COc1cccc2c1nc(N)n1nc(CCN3CCCc4[nH]nc(C5CC5)c43)nc21` [Ex-52, 2-(2-(3-cyc1opropyl-6,7-dihydro-1H-pyrazolo[4,3-b]pyridin-4(5H)-yl)ethyl)-7-methoxy[1,2,4]triazolo[1,5-c]quinazolin-5-amine] the figure was 8.06; with `COc1cccc2c1nc(N)n1nc(CCN3CCc4cncnc4C3)nc21` [Ex-53, 2-(2-(5,6-dihydropyrido[3,4-d]pyrimidin-7(8H)-yl)ethyl)-7-methoxy-[1,2,4]triazolo[1,5-c]quinazolin-5-amine], 8.62.
Molecule `COc1cccc2c1nc(N)n1nc(CCN3CCc4ncncc4C3)nc21` [Ex-54, 2-(2-(7,8-dihydropyrido[4,3-d]pyrimidin-6(5H)-yl)ethyl)-7-methoxy-[1,2,4]triazolo[1,5-c]quinazolin-5-amine] had a negative logarithm of the EC50 (pEC50) of 8.40. Against the preceding molecule, the pEC50 is 0.22 log units lower.

Usually pEC50 stands for the EC50 on a negative log10 scale, so that one unit is a factor of ten. High values mean a small EC50, low ones a large EC50.
